# According to US20060100431A1, “Biologically active compounds” (Amura Therapeutics Limited, priority 2002, published 2006):
# Read-outs that look alike come from different tables or passages of the source.
# Experiments:
# Assay type in all cases: biochemical
# [1] = molecular target: T1, CPB2.8ΔCTE (Leishmania mexicana, UniProt P36400); assay: Leishmania mexicana cysteine protease B (CPB) peptidase activity assay (Ki); details: Ki, inhibitors of Leismania mexicana CPB protease
# T1 construct: Wild-type recombinant CPB without the C-terminal extention (i.e. CPB2.8ΔCTE); Dr. Jeremy Mottram (Wellcome Centre for Molecular Parasitology, University of Glasgow)
# T1 sequence (P36400 126-343, stated change not applied): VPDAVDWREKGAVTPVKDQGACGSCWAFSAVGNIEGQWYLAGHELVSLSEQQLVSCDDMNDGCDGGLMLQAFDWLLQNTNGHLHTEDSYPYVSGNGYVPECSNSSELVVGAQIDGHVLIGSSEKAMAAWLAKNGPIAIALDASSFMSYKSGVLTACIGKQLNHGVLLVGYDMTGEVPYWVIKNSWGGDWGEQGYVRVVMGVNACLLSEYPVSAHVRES
# Procedure, shortened: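 Recombinant CPB2.8ΔCTE (0.25 nM) was assayed in 100 mM sodium acetate pH 5.5 with 1 mM EDTA, 200 mM NaCl and 10 mM DTT at 25 °C, DMSO <1%, enzyme added to start. Rates were taken from continuous fluorescence slopes; apparent Ki was fitted assuming reversible, pure-competitive inhibition.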
# [2] = molecular target: T2, human cathepsin B (Homo sapiens, UniProt P07858); assay: Cathepsin B peptidase activity assay (Ki)
# T2 construct: purchased CN Biosciences
# Experimental: Unless otherwise stated, all general chemicals and biochemicals were purchased from either the Sigma Chemical Company, Poole, Dorset, U.K or from Fisher Scientific UK, Loughborough, Leicestershire, U.K. Absorbance assays were carried out in flat-bottomed 96-well plates (Spectra; Greiner Bio-One Ltd., Stonehouse, Gloucestershire, U.K.) using a SpectraMax PLUS384 plate reader (Molecular Devices, Crawley, U.K.). […] Fluorescence assays were monitored using a SpectraMax Gemini fluorescence plate reader (Molecular Devices). For substrates employing either a 7-amino-4-methylcoumarin (AMC) or a 7-amino-4-trifluoromethylcoumarin (AFC) fluorophore, assays were monitored at an excitation wavelength of 365 nm and an emission wavelength of 450 nm and the fluorescence plate reader calibrated with AMC. For substrates employing a 3-amino-benzoyl (Abz) fluorophore, assays were monitored at an excitation wavelength of 310 nm and an emission wavelength of 445 nm; the fluorescence plate reader calibrated with 3-amino-benzamide (Fluka). Unless otherwise indicated, all the peptidase substrates were purchased from Bachem UK, St Helens, Merseyside, UK. […] Hydroxyethylpiperazine ethanesulfonate (HEPES), tris-hydroxylmethyl aminomethane (tris) base, bis-tris-propane and all the biological detergents (e.g. CHAPS, zwittergents, etc.) were purchased from CN Biosciences UK, Beeston, Nottinghamshire, U.K. Glycerol was purchased from Amersham Pharmacia Biotech, Little Chalfont, Buckinghamshire, U.K. Stock solutions of substrate or inhibitor were made up to 10 mM in 100% dimethylsulfoxide (DMSO) (Rathburns, Glasgow, U.K.) and diluted as appropriately required. In all cases the DMSO concentration in the assays was maintained at less than 1% (vol./vol.).
# Enzyme was added as required to initiate the reaction and the activity, as judged by the change in fluorescence upon conversion of substrate to product, was monitored over time. All assays were carried out at 25±1° C.
# Bovine cathepsin S, human cathepsin L, human cathepsin H and human cathepsin B were obtained from CN Biosciences. Recombinant human cathepsin S, human cathepsin K and human cathepsin X were obtained from Dr. Boris Turk (Josef Stefan Institute, Ljubljana, Slovenia). Unless otherwise stated, all peptidase activity assays were carried out in 10 mM bis-tris-propane (BTP), pH 6.5 containing 1 mM EDTA, 5 mM 2-mercaptoethanol and 1 mM CaCl2.
# The apparent inhibition constant (Ki) for each compound was determined on the basis that inhibition was reversible and occurred by a pure-competitive mechanism. […] [formula]
# [formula] Ki^app=Ki(1+[So]/KM^app) (4)
# Curves were fitted by non-linear regression analysis (Prism) using a fixed value for the enzyme concentration.
# [3] = molecular target: Wild-type cruzipain (Trypanosoma cruzi, UniProt P25779); assay: Trypanosoma cruzi cruzipain peptidase activity assay (Ki); details: read-out: Ki, inhibitors of cruzain and cruzipains
# Chain of Wild-type cruzipain (P25779 whole entry): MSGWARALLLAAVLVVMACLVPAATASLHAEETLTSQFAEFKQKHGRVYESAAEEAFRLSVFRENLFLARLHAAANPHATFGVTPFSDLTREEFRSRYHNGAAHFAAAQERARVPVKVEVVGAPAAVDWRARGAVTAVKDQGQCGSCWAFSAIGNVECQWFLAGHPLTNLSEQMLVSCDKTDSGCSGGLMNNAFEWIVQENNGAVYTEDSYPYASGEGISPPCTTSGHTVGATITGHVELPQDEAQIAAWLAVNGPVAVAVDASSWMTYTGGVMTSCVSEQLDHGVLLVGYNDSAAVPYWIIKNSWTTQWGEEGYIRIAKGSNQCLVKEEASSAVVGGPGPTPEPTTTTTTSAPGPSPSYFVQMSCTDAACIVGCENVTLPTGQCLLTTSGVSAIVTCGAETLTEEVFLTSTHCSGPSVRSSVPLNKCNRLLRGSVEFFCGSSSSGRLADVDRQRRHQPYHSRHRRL
# Procedure, shortened: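 Native cruzipain from T. cruzi Dm28 epimastigotes, 2.5 nM, in 100 mM sodium phosphate pH 6.75 with 1 mM EDTA and 10 mM L-cysteine, 25 °C, DMSO <1%. Rates taken from continuous fluorogenic substrate read; Ki by regression assuming reversible pure-competitive inhibition.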
# [4] = molecular target: T3, human cathepsin L (Homo sapiens, UniProt P07711); assay: Cathepsin L peptidase activity assay (Ki); details: read-out: Ki, inhibitors of cathepsin L
# T3 construct: purchased CN Biosciences
# T3 sequence (P07711 114-333): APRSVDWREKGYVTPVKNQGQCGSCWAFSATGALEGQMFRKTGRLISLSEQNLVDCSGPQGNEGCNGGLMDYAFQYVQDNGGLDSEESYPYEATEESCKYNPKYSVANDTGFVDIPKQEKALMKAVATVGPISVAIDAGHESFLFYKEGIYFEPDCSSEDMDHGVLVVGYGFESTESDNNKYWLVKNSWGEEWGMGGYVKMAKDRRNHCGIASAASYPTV
# Procedure, shortened: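 Human cathepsin L at 1 nM with Ac-Phe-Arg-AMC at its KM^app (~20 μM) in 10 mM bis-tris-propane pH 6.5, 1 mM EDTA, 5 mM 2-mercaptoethanol, 1 mM CaCl2, DMSO <1%, 25±1° C. Reaction enzyme-initiated; AMC fluorescence (ex 365/em 450 nm) monitored over time.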
# [5] = read-out: Ki, inhibitors of cathepsin B
SMILES,Ki [1] [µM],"Ki [2, 5] [µM]",Ki [3] [µM],Ki [2] [µM],Ki [4] [µM]
"CC(C)C[C@H](NC(=O)c1ccc(C(C)(C)C)cc1)C(=O)N1CC[C@@H]2[C@H]1C(=O)CN2C(=O)c1cncc(-c2cccs2)c1 [Example 35, (3aR,6aS)-4-tert-Butyl-N-{(1S)-3-methyl-1-[6-oxo-4-(5-thiophen-2-yl-pyridine-3-carbonyl)-hexahydro-pyrrolo[3,2-b]pyrrole-1-carbonyl]-butyl}-benzamide]",< 5,< 5,< 5,–,–
"CC(C)C[C@H](NC(=O)c1ccc(N(C)C)cc1)C(=O)N1CC[C@@H]2[C@H]1C(=O)CN2C(=O)c1cccc(S(C)(=O)=O)c1 [Example 43, (3aR,6aS)-4-Dimethylamino-N-{(1S)-1-[4-(3-methanesulfonyl-benzoyl)-6-oxo-hexahydro-pyrrolo[3,2-b]pyrrole-1-carbonyl]-3-methyl-butyl}-benzamide]",< 5,< 5,< 5,–,–
"CC(C)C[C@H](NC(=O)c1ccc(N(C)C)cc1)C(=O)N1CC[C@@H]2[C@H]1C(=O)CN2C(=O)c1cccc([N+](=O)[O-])c1 [Example 46, (3aR,6aS)-4-Dimethylamino-N-{(1S)-3-methyl-1-[4-(3-nitro-benzoyl)-6-oxo-hexahydro-pyrrolo[3,2-b]pyrrole-1-carbonyl]-butyl}-benzamide]",< 5,< 5,< 5,–,–
"CC(C)C[C@H](NC(=O)c1ccc(N(C)C)cc1)C(=O)N1CC[C@@H]2[C@H]1C(=O)CN2C(=O)C12CC3CC(CC(C3)C1)C2 [Example 48, (3aR,6aS)-N-{(1S)-1-[4-(Adamantane-1-carbonyl)-6-oxo-hexahydro-pyrrolo[3,2-b]pyrrole-1-carbonyl]-3-methyl-butyl}-4-dimethylamino-benzamide]",< 5,< 5,< 5,–,–
"CCN(CC)c1ccc(C(=O)N[C@@H](CC(C)C)C(=O)N2CC[C@@H]3[C@H]2C(=O)CN3C(=O)c2cccc(S(C)(=O)=O)c2)cc1 [Example 60, (3aR,6aS)-4-Diethylamino-N-{(1S)-1-[4-(3-methanesulfonyl-benzoyl)-6-oxo-hexahydro-pyrrolo[3,2-b]pyrrole-1-carbonyl]-3-methyl-butyl}-benzamide]",< 5,< 5,< 5,–,–
"CC(C)C[C@H](NC(=O)c1ccc(N(C)C)cc1)C(=O)N1CC[C@@H]2[C@H]1C(=O)CN2C(=O)c1ccc(Cl)cc1 [Example 74, (3aR,6aS)-N-{(1S)-1-[4-(4-Chloro-benzoyl)-6-oxo-hexahydro-pyrrolo[3,2-b]pyrrole-1-carbonyl]-3-methyl-butyl}-4-dimethylamino-benzamide]",< 5,< 5,< 5,–,–
"CC(C)C[C@H](NC(=O)c1ccc(N(C)C)cc1)C(=O)N1CC[C@@H]2[C@H]1C(=O)CN2C(=O)c1ccc2c(c1)OCO2 [Example 77, (3aR,6aS)-N-{(1S)-1-[4-(Benzo[1,3]dioxole-5-carbonyl)-6-oxo-hexahydro-pyrrolo[3,2-b]pyrrole-1-carbonyl]-3-methyl-butyl}-4-dimethylamino-benzamide]",< 5,< 5,< 5,–,–
"CC(C)C[C@H](NC(=O)c1ccc(N(C)C)cc1)C(=O)N1CC[C@@H]2[C@H]1C(=O)CN2C(=O)c1ccc2cc[nH]c2c1 [Example 99, (3aR,6aS)-4-Dimethylamino-N-{(1S)-1-[4-(1H-indole-6-carbonyl)-6-oxo-hexahydro-pyrrolo[3,2-b]pyrrole-1-carbonyl]-3-methyl-butyl}-benzamide]",< 5,< 5,< 5,–,–
"CC(C)C[C@H](NC(=O)c1ccc(N(C)C)cc1)C(=O)N1CC[C@@H]2[C@H]1C(=O)CN2C(=O)c1ccc2nonc2c1 [Example 102, (3aR,6aS)-N-{(1S)-1-[4-(Benzo[1,2,5]oxadiazole-5-carbonyl)-6-oxo-hexahydro-pyrrolo[3,2-b]pyrrole-1-carbonyl]-3-methyl-butyl}-4-dimethylamino-benzamide]",< 5,< 5,< 5,–,–
"CC(C)C[C@H](NC(=O)c1ccc(N(C)C)cc1)C(=O)N1CC[C@@H]2[C@H]1C(=O)CN2C(=O)C1CCCCCC1 [Example 135, (3aR,6aS)-N-[(1S)-1-(4-Cycloheptanecarbonyl-6-oxo-hexahydro-pyrrolo[3,2-b]pyrrole-1-carbonyl)-3-methyl-butyl]-4-dimethylamino-benzamide]",< 5,–,< 5,< 5,–
"CCC(C)CC(=O)N1CC(=O)[C@@H]2[C@H]1CCN2C(=O)[C@H](CC(C)C)NC(=O)c1ccc(N(C)C)cc1 (stereo partly drawn) [Example 141, (3aR,6aS)-4-Dimethylamino-N-{(1S)-3-methyl-1-[4-(3-methyl-pentanoyl)-6-oxo-hexahydro-pyrrolo[3,2-b]pyrrole-1-carbonyl]-butyl}-benzamide]",< 5,< 5,< 5,–,–
"CC(C)C[C@H](NC(=O)c1ccc(N(C)C)cc1)C(=O)N1CC[C@@H]2[C@H]1C(=O)CN2C(=O)c1ccc(Cl)s1 [Example 166, (3aR,6aS)-N-{(1S)-1-[4-(5-Chloro-thiophene-2-carbonyl)-6-oxo-hexahydro-pyrrolo[3,2-b]pyrrole-1-carbonyl]-3-methyl-butyl}-4-dimethylamino-benzamide]",< 5,< 5,< 5,–,–
"O=C(N[C@@H](CSCc1ccccc1)C(=O)N1CC[C@@H]2[C@H]1C(=O)CN2C(=O)c1ccccc1)c1ccsc1 [Example 251, (3aR,6aS)-Thiophene-3-carboxylic acid [(1R)-2-(4-benzoyl-6-oxo-hexahydro-pyrrolo[3,2-b]pyrrole-1-yl)-1-benzylsulfanylmethyl-2-oxo-ethyl]-amide]",–,< 5,–,–,< 5
"O=C(N[C@@H](CC1CCCCC1)C(=O)N1CC[C@@H]2[C@H]1C(=O)CN2C(=O)c1ccc(-c2ccccc2)s1)c1ccsc1 [Example 258, (3aR,6aS)-Thiophene-3-carboxylic acid {(1S)-1-cyclohexylmethyl-2-oxo-2-[6-oxo-4-(5-phenyl-thiophene-2-carbonyl)-hexahydro-pyrrolo[3,2-b]pyrrole-1-yl]-ethyl}-amide]",–,< 5,–,–,< 5
"O=C(N[C@@H](CC1CCCCC1)C(=O)N1CC[C@@H]2[C@H]1C(=O)CN2C(=O)c1ccccc1)c1cccc(Oc2ccccc2)c1 [Example 259, (3aR,6aS)-N-[(1S)-2-(4-Benzoyl-6-oxo-hexahydro-pyrrolo[3,2-b]pyrrol-1-yl)-1-cyclohexylmethyl-2-oxo-ethyl]-3-phenoxy-benzamide]",–,< 5,–,–,< 5
"CS(=O)(=O)c1cccc(C(=O)N2CC(=O)[C@@H]3[C@H]2CCN3C(=O)[C@H](CSCc2ccccc2)NC(=O)c2ccsc2)c1 [Example 262, (3aR,6aS)-Thiophene-3-carboxylic acid {(1R)-1-benzylsulfanylmethyl-2-(4-(3-methanesulfonyl-benzoyl)-6-oxo-hexahydro-pyrrolo[3,2-b]pyrrol-1-yl)-2-oxo-ethyl}-amide]",–,< 5,–,–,< 5
"O=C(N[C@@H](CSCc1ccccc1)C(=O)N1CC[C@@H]2[C@H]1C(=O)CN2C(=O)c1ccccc1)C(c1ccccc1)c1ccccc1 [Example 269, (3aR,6aS)-N-[(1R)-2-(4-Benzoyl-6-oxo-hexahydro-pyrrolo[3,2-b]pyrrol-1-yl)-1-benzylsulfanylmethyl-2-oxo-ethyl]-2,2-diphenyl-acetamide]",–,< 5,–,–,< 5
